PubChem BioAssay AID743070 (Broad Institute, 2013)
Calls of active or inactive are those of the source. The rule behind the calls is not given here.

Test: growth inhibition of wild-type Mtb, BioA inhibitor project, biotin-free medium, plate reader, dry powder (AID 743070)
Conditions: M. tuberculosis wild type growth; for IC90: measured here: Mtb growth IC90

Structure (SMILES)	IC50	IC90 [µM]
CC(=O)c1ccc(N2CCN(C(=O)c3cccc(F)c3)CC2)cc1	> 50 µM (inactive)	> 50
O=C(Nc1cccnc1)c1cnn2c(C(F)(F)F)cc(-c3ccccc3)nc12	> 50 µM (inactive)	> 50
Cc1nc2cc(NC(=O)N3CCN(c4ccccc4)CC3)ccc2o1	50 µM	> 50
Cc1nc2ccc(NC(=O)N3CCN(c4ccccc4)CC3)cc2s1	2.1 µM	6.8
CC(=O)c1ccc(N2CCN(C(=O)c3cccc(Cl)c3)CC2)cc1	7.5 µM	27.5
COc1cccc(NC(=O)N2CCN(c3ccccc3)CC2)c1	50 µM	> 50
CC(=O)c1ccc(N2CCN(C(=O)c3ccc(Cl)cc3)CC2)cc1	> 50 µM (inactive)	> 50
CCc1ccc(N2CCN(C(=O)c3ccc4c(c3)OCO4)CC2)cc1	9.6 µM	> 50
O=C(Nc1ccc2snnc2c1)N1CCCCC1	50 µM	> 50
CCc1ccc(C(=O)N2CCN(Cc3ccc4c(c3)OCO4)CC2)cc1	8.5 µM	> 50
CC(=O)c1ccc(N2CCN(C(=O)c3ccc4c(c3)OCCO4)CC2)cc1	> 50 µM (inactive)	> 50
O=C(Nc1ccccc1)N1CCN(c2ccccc2)CC1	6.9 µM	> 50
O=C(Nc1cccc(F)c1)N1CCN(c2ccccc2)CC1	8.2 µM	> 50
O=C(c1ccc2c(c1)OCO2)N1CCN(Cc2ccccc2)CC1	> 50 µM (inactive)	> 50
O=C(Nc1ccc2snnc2c1)N1CCN(c2ccccc2)CC1	3.2 µM	17.9
Cc1ccc(/C=C(\CC(=O)O)c2nc3ccccc3s2)cc1[N+](=O)[O-]	6.8 µM	> 50
CC(=O)c1ccc(N2CCN(C(=O)c3ccc4ncsc4c3)CC2)cc1	22.2 µM	> 50
Cc1cc(C)n2nc(C(=O)Nc3cccnc3)nc2n1	> 50 µM (inactive)	> 50
O=C(COc1ccc2ccc(=O)oc2c1)N1CCN(c2ccc(F)cc2)CC1	50 µM	> 50
Cc1cccc(/C=C(\CCC(=O)O)c2nc3ccccc3s2)c1	3.1 µM	11

Structure (SMILES)	IC50	IC90 [µM]
CC(=O)c1ccc(N2CCN(C(=O)c3ccc(C)cc3)CC2)cc1	> 50 µM (inactive)	> 50
O=C(Nc1ccc(Cl)cc1)c1cc2nc(C3CC3)cc(C(F)(F)F)n2n1	50 µM	> 50
COc1ccc(-c2cc(C(F)(F)F)n3nc(C(=O)Nc4cccnc4)cc3n2)cc1	2.7 µM	> 50
COC(=O)c1c(C(=O)OC)c(-c2cccc(F)c2)n2c1CS(=O)C2 (stereo not given)	15.9 µM	> 50
COc1cc(/C=C/C(=O)Nc2cccnc2)cc(OC)c1OC	13.7 µM	> 50
CC(=O)c1ccc(N2CCN(C(=O)c3ccc4c(c3)OCO4)CC2)cc1	5 µM	26.3
Cc1ccc(/C=C(\CCCC(=O)O)c2nc3ccccc3s2)cc1[N+](=O)[O-]	8.4 µM	> 63.3
O=C(c1ccc2c(c1)OCO2)N1CCN(c2ccc(F)cc2)CC1	22 µM	> 50
Cc1ccc(-c2cc(C(F)(F)F)n3nc(C(=O)Nc4cccnc4)cc3n2)cc1	> 50 µM (inactive)	> 50
O=C(Nc1ccncc1)c1cc2nc(C3CC3)cc(C(F)F)n2n1	50 µM	> 50
O=C(Nc1ccc2snnc2c1)N1CCOCC1	> 50 µM (inactive)	> 50
CCN(CC)c1ccc2cc(C(=O)c3cccs3)c(=O)oc2c1	3.8 µM	20.7
COc1cccc(NC(=O)CCC2CCN(C(=O)c3ccc(C(C)=O)s3)CC2)c1	10.7 µM	> 50
CC(C)(C)c1ccc(C(=O)N2CCN(c3ccc4c(c3)OCO4)CC2)cc1	14.9 µM	> 50
COc1ccc(N2CCN(C(=O)c3ccc4c(c3)OCO4)CC2)cc1	9.7 µM	> 50
COc1ccc(C(=O)N2CCN(c3ccc(C(C)=O)cc3)CC2)cc1	> 50 µM (inactive)	> 50
Cc1cc(C)n2nc(C(=O)Nc3cccnc3)cc2n1	21.8 µM	> 50
Cc1ccc(/C=C(\CCC(=O)O)c2nc3ccccc3s2)cc1	2 µM	4.8
CC(=O)c1ccc(N2CCN(C(=O)c3ccccc3)CC2)cc1	> 50 µM (inactive)	> 50
CC(=O)c1ccc(N2CCN(C(=O)c3ccc(F)cc3)CC2)cc1	50 µM	> 50

Structure (SMILES)	IC50	IC90 [µM]
COc1ccc(NC(=O)N2CCN(c3ccccc3)CC2)cc1	50 µM	> 50
O=C(Nc1cccnc1)c1cnn2c(C(F)F)cc(C3CC3)nc12	> 50 µM (inactive)	> 50
O=C(Nc1ccc2[nH]ccc2c1)N1CCN(c2ccccc2)CC1	7 µM	> 50
CCOC(=O)N1CCN(C(=O)Nc2ccc3snnc3c2)CC1	14.6 µM	> 50
O=C(Nc1cccc(Cl)c1)N1CCN(c2ccccc2)CC1	5 µM	> 50
O=C(Nc1ccc(F)cc1)N1CCN(c2ccccc2)CC1	14.1 µM	> 50
Cc1ccc(NC(=O)N2CCN(c3ccccc3)CC2)cc1	10.3 µM	> 50
CC(=O)c1ccc(N2CCN(Cc3ccc4c(c3)OCO4)CC2)cc1	31.2 µM	> 50
CC(=O)c1ccc(N2CCN(C(=O)c3cccnc3)CC2)cc1	> 50 µM (inactive)	> 50
O=C(Nc1cccnc1)N1CCN(c2ccccc2)CC1	> 50 µM (inactive)	> 50
Cc1ccc(/C=C(\CCC(=O)O)c2nc3ccccc3s2)cc1[N+](=O)[O-]	1.1 µM	2.5
COc1cccc(C(=O)N2CCN(c3ccc(C(C)=O)cc3)CC2)c1	50 µM	> 50
O=C(c1ccc2c(c1)OCO2)N1CCN(c2ccccc2)CC1	23.2 µM	> 50
O=C(Nc1ccc(Cl)c(-c2nc3ccccc3[nH]2)c1)c1cccnc1	7.4 µM	46
O=C(Nc1cccnc1)c1cc2nc(-c3cccs3)cc(C(F)(F)F)n2n1	> 50 µM (inactive)	> 50
Cc1ccccc1/C=C(\CCC(=O)O)c1nc2ccccc2s1	8.3 µM	44.1
O=C(c1ccc2c(c1)OCO2)N1CCN(c2ccc(Cl)cc2)CC1	11.2 µM	49.2
O=C(O)CC/C(=C\c1ccccc1[N+](=O)[O-])c1nc2ccccc2s1	50 µM	> 50
O=C(O)CC/C(=C\c1ccc([N+](=O)[O-])cc1)c1nc2ccccc2s1	8.9 µM	34.4
CC(=O)c1ccc(N2CCN(C(=O)c3ccc(Br)cc3)CC2)c(F)c1	10.3 µM	> 50
